Test results published in patent US7148229B2, “Sulfonamide substituted xanthine derivatives” (Hoffman-La Roche Inc., priority 2003, dated 2006).
Counter-ions that a name gives are not always drawn.

The molecules below were run against T1, recombinant human cytosolic PEPCK (GST-PEPCK) (Homo sapiens, UniProt P35558) (assay: PEPCK enzyme assay (coupled to pyruvate kinase / lactate dehydrogenase, absorbance at 340 nm)). Details: in vitro PEPCK enzymatic assay; GTP at 3 fold and OAA at 10 fold Km; final DMSO 10%; room temperature, twenty minutes.
T1 construct: made in house; host or cells: E. coli
T1 sequence (P35558 1-622): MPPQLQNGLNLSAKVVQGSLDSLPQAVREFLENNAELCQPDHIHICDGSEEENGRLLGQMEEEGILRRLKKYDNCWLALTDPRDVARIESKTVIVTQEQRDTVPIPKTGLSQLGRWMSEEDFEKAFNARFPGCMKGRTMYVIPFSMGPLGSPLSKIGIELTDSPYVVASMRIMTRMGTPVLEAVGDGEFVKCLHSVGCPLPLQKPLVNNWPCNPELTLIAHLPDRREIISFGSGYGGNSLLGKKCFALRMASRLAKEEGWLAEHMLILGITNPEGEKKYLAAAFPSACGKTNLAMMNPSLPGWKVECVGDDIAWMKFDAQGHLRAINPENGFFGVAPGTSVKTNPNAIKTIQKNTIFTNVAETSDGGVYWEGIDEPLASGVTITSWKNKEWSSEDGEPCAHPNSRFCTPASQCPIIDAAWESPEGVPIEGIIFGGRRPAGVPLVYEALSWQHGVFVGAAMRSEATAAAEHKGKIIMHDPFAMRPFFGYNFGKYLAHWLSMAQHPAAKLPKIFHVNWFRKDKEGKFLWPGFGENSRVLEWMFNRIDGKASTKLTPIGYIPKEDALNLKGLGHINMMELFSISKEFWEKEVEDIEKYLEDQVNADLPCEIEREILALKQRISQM
Type: biochemical
Experimental: E. coli cells expressing GST-PEPCK were suspended in 5 volumes of lysis buffer (50 mM Tris-hydroxymethyl aminomethyl (TRIS), 150 mM sodium chloride (NaCl), 10 mM ethylene-diametetraacetic acid (EDTA), 5 mM dithiothreitol(DTT), 1% Nonidet P-40, pH 7.4) in the presence of protease inhibitors, incubated with lysozyme at 200 micrograms/ml for 30 min. at room temperature, and sonicated 4×30 seconds at 4 degrees C. After centrifugation at 12,000×g for 20 min. to remove insoluble material, the supernatant was loaded onto glutathione Sepharose (Pharmacia), washed with lysis buffer followed by washing with lysis buffer in the absence of NP-40. GST-PEPCK was eluted with the same buffer containing 20 mM glutathione. The eluted protein was concentrated and dialyzed against 25 mM Hepes(N-[2-hydroxyethyl]piperazine-N′[2-ethanesulfonic acid), 150 mM NaCl, 2.5 mM EDTA, 5 mM DTT, 30% glycerol, pH 7.4, and stored at −20° C.
The inhibitory effect of the compounds of the present invention on PEPCK enzymatic activity was determined using recombinant human cytosolic PEPCK, expressed and purified from E.coli as a GST-fusion. Guanosine triphosphate (GTP) and manganese dependent PEPCK enzyme activity catalyzed the decarboxylation of oxalacetate leading to the formation of guanosine diphosphate (GDP) and phosphoenol pyruvate (PEP). This reaction is coupled to pyruvate kinase and lactate dehydrogenase catalyzed reactions and the overall reaction rate determined by measuring the change in absorbance at 340 nm (Chang, H. C. and Lane M. D., J. Biol. Chem. 241:2413–2420, 1966). The following modifications were made to the protocol: 2.5 μg of recombinant, human cytosolic glutathione-S-transferase (GST)-PEPCK was added to a reaction mixture at room temperature which contained 0.3 mM GTP, 0.3 mM oxaloacetate (OAA), 3 mM magnesium chloride (MgCl2), 0.075 mM manganese chloride (MnCl2), 30 mM potassium phosphates (KPO4), pH 7.6, 1 mM dithiothreitol (DTT), 0.2 mM adenosine diphosphate (ADP), 1 mM nicotinamide adenine dinucleotide, reduced form (NADH), 0.9 Units/ml each of pyruvate kinase and lactate dehydrogenase and 1 mg/ml bovine serum albumin (BSA). Test compounds were added such that final concentration of DMSO was 10%. Reactions were run for twenty minutes.
Km values for GTP and OAA were determined according to Michelis-Menton conditions as described in Comish-Bowden (Fundamentals of Enzyme Kinetics, 1995) in essentially the coupled assay conditions described above. […] Test compounds were added to reactions over a range of concentrations and IC50's were calculated from plots of inhibitor concentration versus enzyme rate. This method of determination of IC50 values is equally applicable to calculations based on PEPCK cellular assay.

Structure (SMILES) | IC50 [nM]
Cc1nn(C)c(Cl)c1S(=O)(=O)Nc1ccc(Cc2nc3c([nH]2)c(=O)n(Cc2ccccc2F)c(=O)n3CC2CC2)cc1 [Example 1, 5-Chloro-1,3-dimethyl-1H-pyrazole-4-sulfonic acid {4-[3-cyclopropylmethyl-1-(2-fluoro-benzyl)-2,6-dioxo-2,3,6,7-tetrahydro-1H-purin-8-ylmethyl]-phenyl}-amide] | 290
Cn1cc(S(=O)(=O)Nc2ccc(Cc3nc4c([nH]3)c(=O)n(Cc3ccccc3F)c(=O)n4CC3CC3)cc2)cn1 [Example 2, 1-Methyl-1H-pyrazole-4-sulfonic acid {4-[3-cyclopropylmethyl-1-(2-fluoro-benzyl)-2,6-dioxo-2,3,6,7-tetrahydro-1H-purin-8-ylmethyl]-phenyl}-amide] | 390
COc1cccc(S(=O)(=O)Nc2ccc(Cc3nc4c([nH]3)c(=O)n(Cc3ccccc3F)c(=O)n4CC3CC3)cc2)c1 [Example 3, N-{4-[3-Cyclopropylmethyl-1-(2-fluoro-benzyl)-2,6-dioxo-2,3,6,7-tetrahydro-1H-purin-8-ylmethyl]-phenyl}-3-methoxy-benzenesulfonamide] | 1200
O=c1c2[nH]c(Cc3ccc(NS(=O)(=O)c4cccc(F)c4)cc3)nc2n(CC2CC2)c(=O)n1Cc1ccccc1F [Example 4, N-{4-[3-Cyclopropylmethyl-1-(2-fluoro-benzyl)-2,6-dioxo-2,3,6,7-tetrahydro-1H-purin-8-ylmethyl]-phenyl}-3-fluoro-benzenesulfonamide] | 2550
O=c1c2[nH]c(Cc3ccc(NS(=O)(=O)c4cnc(Cl)c(Br)c4)cc3)nc2n(CC2CC2)c(=O)n1Cc1ccccc1F [Example 5, 5-Bromo-6-chloro-pyridine-3-sulfonic acid {4-[3-cyclopropylmethyl-1-(2-fluoro-benzyl)-2,6-dioxo-2,3,6,7-tetrahydro-1H-purin-8-ylmethyl]-phenyl}-amide] | 4580
Cc1nn(C)c(Cl)c1S(=O)(=O)Nc1cccc(Cc2nc3c([nH]2)c(=O)n(Cc2ccccc2F)c(=O)n3CC2CC2)c1 [Example 6, 5-Chloro-1,3-dimethyl-1H-pyrazole-4-sulfonic acid {3-[3-cyclopropylmethyl-1-(2-fluoro-benzyl)-2,6-dioxo-2,3,6,7-tetrahydro-1H-purin-8-ylmethyl]-phenyl}-amide] | 1100
Cc1nn(C)cc1S(=O)(=O)Nc1ccc(Cc2nc3c([nH]2)c(=O)n(Cc2ccccc2F)c(=O)n3CC2CC2)cc1 [Example 7, 1,3-Dimethyl-1H-pyrazole-4-sulfonic acid {4-[3-cyclopropylmethyl-1-(2-fluoro-benzyl)-2,6-dioxo-2,3,6,7-tetrahydro-1H-purin-8-ylmethyl]-phenyl}-amide] | 150
CC(=O)Nc1nc(C)c(S(=O)(=O)Nc2ccc(Cc3nc4c([nH]3)c(=O)n(Cc3ccccc3F)c(=O)n4CC3CC3)cc2)s1 [Example 10, N-(5-{4-[3-Cyclopropylmethyl-1-(2-fluoro-benzyl)-2,6-dioxo-2,3,6,7-tetrahydro-1H-purin-8-ylmethyl]-phenylsulfamoyl}-4-methyl-thiazol-2-yl)-acetamide] | 220
Cc1nc(N)sc1S(=O)(=O)Nc1ccc(Cc2nc3c([nH]2)c(=O)n(Cc2ccccc2F)c(=O)n3CC2CC2)cc1 [Example 11, 2-Amino-4-methyl-thiazole-5-sulfonic acid {4-[3-cyclopropylmethyl-1-(2-fluoro-benzyl)-2,6-dioxo-2,3,6,7-tetrahydro-1H-purin-8-ylmethyl]-phenyl}-amide trifluoro-acetic acid salt] | 230
Cc1noc(C)c1S(=O)(=O)Nc1ccc(Cc2nc3c([nH]2)c(=O)n(Cc2ccccc2F)c(=O)n3CC2CC2)cc1 [Example 12, 3,5-Dimethyl-isoxazole-4-sulfonic acid {4-[3-cyclopropylmethyl-1-(2-fluoro-benzyl)-2,6-dioxo-2,3,6,7-tetrahydro-1H-purin-8-ylmethyl]-phenyl}-amide] | 790
Cc1nc(S(=O)(=O)Nc2ccc(Cc3nc4c([nH]3)c(=O)n(Cc3ccccc3F)c(=O)n4CC3CC3)cc2)cn1C [Example 13, 1,2-Dimethyl-1H-imidazole-4-sulfonic acid {4-[3-cyclopropylmethyl-1-(2-fluoro-benzyl)-2,6-dioxo-2,3,6,7-tetrahydro-1H-purin-8-ylmethyl]-phenyl}-amide] | 340
Cn1cnc(S(=O)(=O)Nc2ccc(Cc3nc4c([nH]3)c(=O)n(Cc3ccccc3F)c(=O)n4CC3CC3)cc2)c1 [Example 14, 1-Methyl-1H-imidazole-4-sulfonic acid {4-[3-cyclopropylmethyl-1-(2-fluoro-benzyl)-2,6-dioxo-2,3,6,7-tetrahydro-1H-purin-8-ylmethyl]-phenyl}-amide] | 410
CN(C)S(=O)(=O)Nc1ccc(Cc2nc3c([nH]2)c(=O)n(Cc2ccccc2F)c(=O)n3CC2CC2)cc1 [Example 17, N-{4-[3-Cyclopropylmethyl-1-(2-fluoro-benzyl)-2,6-dioxo-2,3,6,7-tetrahydro-1H-purin-8-ylmethyl]-phenyl}-N,N-dimethylsulfamide] | 960
Cc1nn(C)c(Cl)c1S(=O)(=O)N(C)c1ccc(Cc2nc3c([nH]2)c(=O)n(Cc2ccccc2F)c(=O)n3CC2CC2)cc1 [Example 18, 5-Chloro-1,3-dimethyl-1H-pyrazole-4-sulfonic acid {4-[3-cyclopropylmethyl-1-(2-fluoro-benzyl)-2,6-dioxo-2,3,6,7-tetrahydro-1H-purin-8-ylmethyl]-phenyl}-methyl-amide] | 2050
O=c1c2[nH]c(Cc3ccc(NS(=O)(=O)c4cccc5cccnc45)cc3)nc2n(CC2CC2)c(=O)n1Cc1ccccc1F [Example 19, Quinoline-8-sulfonic acid {4-[3-cyclopropylmethyl-1-(2-fluoro-benzyl)-2,6-dioxo-2,3,6,7-tetrahydro-1H-purin-8-ylmethyl]-phenyl}-amide] | 450
CC(=O)Nc1ccc(S(=O)(=O)Nc2ccc(Cc3nc4c([nH]3)c(=O)n(Cc3ccccc3F)c(=O)n4CC3CC3)cc2)cc1 [Example 20, N-(4-{4-[3-Cyclopropylmethyl-1-(2-fluoro-benzyl)-2,6-dioxo-2,3,6,7-tetrahydro-1H-purin-8-ylmethyl]-phenylsulfamoyl}-phenyl)-acetamide] | 6250
CCCCn1c(=O)n(Cc2ccccc2)c(=O)c2[nH]c(Cc3ccc(NS(=O)(=O)c4ccc(C)cc4)cc3)nc21 [Example 21, N-[4-(1-Benzyl-3-butyl-2,6-dioxo-2,3,6,7-tetrahydro-1H-purin-8-ylmethyl)-phenyl]-4-methyl-benzenesulfonamide] | 7650
O=c1c2[nH]c(Cc3ccc(NS(=O)(=O)c4cccnc4)cc3)nc2n(CC2CC2)c(=O)n1Cc1ccccc1F [Example 22, Pyridine-3-sulfonic acid {4-[3-cyclopropylmethyl-1-(2-fluoro-benzyl)-2,6-dioxo-2,3,6,7-tetrahydro-1H-purin-8-ylmethyl]-phenyl}-amide trifluoro-acetic acid salt] | 1950
CS(=O)(=O)Nc1ccc(Cc2nc3c([nH]2)c(=O)n(Cc2ccccc2F)c(=O)n3CC2CC2)cc1 [Example 23, N-{4-[3-Cyclopropylmethyl-1-(2-fluoro-benzyl)-2,6-dioxo-2,3,6,7-tetrahydro-1H-purin-8-ylmethyl]-phenyl}-methanesulfonamide] | 1250
